Experimental data reported in publication PMC4202157, “Amphipathic tail-anchoring peptide is a promising therapeutic agent for prostate cancer treatment” (Oncotarget, 2014).
Entries after “also recorded” stand apart in the source; their conditions may differ. Bridge positions count the residues as written; N and C are the ends. Peptide text beside a SMILES is read from it.

Assays:
[1] = tested on: DU145 cells; assay: MTT cell viability assay, DU145 cells; type: cell-based
Description: (§1) The human esophageal squamous carcinoma cell line KYSE-150 was provided by Dr. Chung S. Yang (Rutgers University, Piscataway, NJ)[41, 42]. DU145, LNCaP, PC-3, K562, U87 and MDA-MB-231 cells were purchased from American Type Culture Collection and cultured with designated medium, supplemented with 10% fetal bovine serum, 100 unit/ml penicillin, and 100 μg/ml streptomycin. Cell viability was determined by MTT assay. Cells were plated at 1,000-1,500 cells per well in a 96-well plate and then treated with indicated amounts of ATAP peptides for 48 hours. Then, 20 μl (5 mg/ml in PBS) MTT [3-(4,5-dimethylthiazol-2-yl)-2,5-diphenyltetrazolium bromide] (Sigma Chemical Co., St. Louis, Mo.) was added to each well. After another 4 hours, 150 μL DMSO was added to dissolve formazan crystals in each well, and the absorbance were recorded at 570 nm.

[2] = tested on: LNCaP cells; type: cell-based; conditions: 48 h
Description: as §1

[3] = tested on: MDA-MB-231 breast adenocarcinoma cells; type: cell-based; conditions: 48 h
Description: as §1

[4] = tested on: PC-3 cells; type: cell-based; conditions: 48 h
Description: as §1

[5] = tested on: U87 glioblastoma cells; type: cell-based; conditions: 48 h
Description: as §1

[6] = tested on: K562 cells; type: cell-based, human; conditions: 48 h
Description: as §1

[7] = tested on: KYSE-150 esophageal squamous carcinoma cells; type: cell-based, human; conditions: 48 h
Description: as §1

[8] = tested on: SV129 mice; assay: Repetitive intravenous injection toxicity in SV129 mice; type: in vivo
Description: For further evaluation of the in vivo toxic effect of ATAP-iRGD, repetitive injections of ATAP-iRGD into the immune intact SV129 mice were conducted.

[9] = Precipitation / aggregation of peptide in cell culture medium; type: physicochemical; conditions: for Precipitation in normal culture medium: 200 μM peptide added to DU145 cells in normal culture medium, 37 °C, 24 hours incubation, microscopy
[10] = tested on: DU145 xenograft; assay: DU145 xenograft in nude mice; type: in vivo, NCR nude mice
Description: (§2) Handling of animals was performed in accordance with protocols approved by the Institutional Animal Care and Use Committee (IACUC) of the Ohio State University. Five week-old NCR nude mice (Taconic Farms, Germantown, NY) were implanted subcutaneously in both flanks with 2 ×10^6 DU145 or PC-3 cells. After tumors reached 4 to 7 mm in diameter (about 9~14 days after implantation), the mice were randomly divided into two groups so that both the mean and the variance of the tumor diameters are of no significant difference among the groups prior to treatment. The ATAP-iRGD-M8 peptide was injected through tail vein once every two days during the whole procedure. Tumor volume was measured by a digital caliper (Thermo Fisher Scientific, Waltham, MA). Tumor volume was determined from the orthogonal dimensions (length, width) using the formula: tumor volume = 1/2(length × width^2). According to the IACUC guideline, the experiments will be terminated when tumors reached 1.5 cm in diameter. At the end of experiment, mice were sacrificed and xenografts were removed and weighted. For toxicological evaluation of peptide treatments, mouse body weights were measured every four days. […]

[11] = tested on: PC-3 xenograft; assay: PC-3 xenograft in nude mice; type: in vivo, NCR nude mice; conditions: tail vein injection once every two days
Description: as §2

[12] = tested on: kidney, heart, liver, lung and spleen; assay: H&E organ pathology in xenograft nude mice; type: in vivo, NCR nude mice; conditions: xenograft nude mice after peptide treatment, vs control
Description: as §2

[13] = tested on: DU145 cells; assay: Live-cell confocal imaging of peptide uptake and mitochondria localization; type: cell-based; conditions: 2 μM Dylight488-labeled peptide, Mito Tracker Red, 50 μM Q-VD-OPh, confocal microscopy
Description: ATAP-iRGD and ATAP-iRGD-M8 peptides were labeled with an amine-reactive DyLight488 fluorophore (Pierce Biotechnology, Rockford, USA) according to the manufacturer's instructions. DU145 cells were cultured in the presence of 2 μM Dylight488-labeled ATAP-iRGD or ATAP-iRGD-M8 plus 50 nM Mito Tracker Red (Molecular Probes Inc., Eugene, OR). 50 μM Q-VD-OPh was added to the culture medium in order to prevent cell apoptosis. Sample images were taken by BioRad 2100 Radiance laser scanning confocal microscope (Bio-Rad Laboratories, Hercules, CA) with a 60×, 1.3NA oil immersion objective (Nikon Instruments Inc., Melville, NY).

Compound `CC[C@H](C)[C@H](NC(=O)[C@H](CCCCN)NC(=O)CNC(=O)[C@@H](NC(=O)[C@@H](NC(=O)[C@H](CCC(=O)O)NC(=O)[C@H](CC(C)C)NC(=O)[C@H](Cc1ccccc1)NC(=O)[C@@H](NC(=O)[C@H](CCSC)NC(=O)[C@H](Cc1c[nH]c2ccccc12)NC(=O)CNC(=O)[C@H](CO)NC(=O)[C@H](CCCCN)NC(=O)[C@@H]1CCCN1C(=O)[C@H](CCC(=O)O)NC(=O)[C@H](Cc1ccccc1)NC(=O)[C@@H](N)CCCCN)[C@@H](C)O)C(C)C)[C@@H](C)O)C(=O)N[C@@H](C)C(=O)N[C@@H](CCC(=O)O)C(=O)N[C@@H](CCSC)C(=O)N[C@@H](CC(C)C)C(=O)N[C@@H](CO)C(=O)N[C@@H](CC(C)C)C(=O)N[C@@H](CC(C)C)C(=O)N[C@@H](CCCCN)C(=O)N[C@@H](CCC(N)=O)C(=O)N[C@@H](Cc1ccc(O)cc1)C(=O)N[C@H]1CSSC[C@@H](C(=O)O)NC(=O)[C@H](CC(=O)O)NC(=O)[C@@H]2CCCN2C(=O)CNC(=O)[C@H](CCCCN)NC(=O)[C@H](CC(=O)O)NC(=O)CNC(=O)[C@H](CCCNC(=N)N)NC1=O` [ATAP-iRGD] (H-KFEPKSGWMTFLEVTGKIAEMLSLLKQYCRGDKGPDC-OH; disulfide 29-37) has an IC50 ([1]; 48 h) of 1.6 ± 0.5 µM, an IC50 [2] of 7.1 ± 1.7 µM and an IC50 [3] of 5.9 ± 1.1 µM. For the same compound, the IC50 [4] was 9.2 ± 1.6 µM, the IC50 [5] was 10.3 ± 2.6 µM and the IC50 [6] was 107 ± 41 µM. For the same compound, the IC50 [7] was 4.4 ± 0.5 µM, the “Signs of toxicity on repetitive injection” value ([8]; immune intact SV129 mice, repetitive intravenous injections) was “no visible signs or symptoms of toxicity” and the “H&E pathology of kidney, heart, liver, lung and spleen” value ([8]; mouse, in vivo, iv) was “no significant pathological abnormalities”.
For `CC[C@H](C)[C@H](NC(=O)[C@H](CCCCN)NC(=O)CNC(=O)[C@@H](NC(=O)[C@@H](NC(=O)[C@H](CCC(=O)O)NC(=O)[C@H](CC(C)C)NC(=O)[C@H](Cc1ccccc1)NC(=O)[C@@H](NC(=O)[C@H](CCSC)NC(=O)[C@H](Cc1c[nH]c2ccccc12)NC(=O)CNC(=O)[C@H](CO)NC(=O)[C@H](CCCCN)NC(=O)[C@@H]1CCCN1C(=O)[C@H](CCC(=O)O)NC(=O)[C@H](Cc1ccccc1)NC(=O)[C@@H](N)CCCCN)[C@@H](C)O)C(C)C)[C@@H](C)O)C(=O)N[C@@H](C)C(=O)N[C@@H](CCC(=O)O)C(=O)N[C@@H](CCSC)C(=O)N[C@@H](CC(C)C)C(=O)N[C@@H](CO)C(=O)N[C@@H](CC(C)C)C(=O)N[C@@H](CC(C)C)C(=O)N[C@@H](CC(C)C)C(=O)N[C@@H](CCC(N)=O)C(=O)N[C@@H](Cc1ccc(O)cc1)C(=O)N[C@H]1CSSC[C@@H](C(=O)O)NC(=O)[C@H](CC(=O)O)NC(=O)[C@@H]2CCCN2C(=O)CNC(=O)[C@H](CCCCN)NC(=O)[C@H](CC(=O)O)NC(=O)CNC(=O)[C@H](CCCNC(=N)N)NC1=O` [Mutant M4] (H-KFEPKSGWMTFLEVTGKIAEMLSLLLQYCRGDKGPDC-OH; disulfide 29-37), the “Cytotoxic activity in DU145 cells, in words” value ([1]; MTT assay, 48 hours, unconjugated ATAP tested at 0.01 – 100 μM) was “complete abolishment of the cytotoxic activity”.
In the case of “Ac-KFEPKSGWMTFLEVTGKIAEMLSLLKQYCRGDKGPDC-NH2 (disulfide 29-37 (inferred)) [Mutant M7, ATAP-iRGD with acetylated amino terminus and amidated carboxyl terminus]”, the “Precipitation in normal culture medium” value [9] is reported as “precipitate; also recorded: pronounced precipitation”.
In the case of “Ac-KKFEPKSGWMTFLEVTGKIAEMLSLLKQYCRGDKGPDC-NH2 (disulfide 30-38 (inferred)) [ATAP-iRGD-M8, ATAP-iRGD with one more Lys, acetylated and amidated termini]”, the “Precipitation in normal culture medium” value [9] is reported as “no precipitation”, the “Concentration at which no precipitation was observed” value ([9]; normal cell culture medium, neutral pH, prolonged incubation) is reported as “above 200 μM” and the “DU145 xenograft volume vs saline” value ([10]; 21 mg/kg via tail vein once every two days, n=6 treated, n=9 saline) is reported as “significantly smaller”. The “DU-145 xenograft weight at end of experiment” value ([10]; xenografts dissected and weighted, mean±SEM, P<0.05 (Fig. S2)) was “significantly suppressed DU-145 tumor growth”, the “PC-3 xenograft tumor growth vs saline” value [11] was “significant suppression of tumor growth” and the “H&E pathology of kidney, heart, liver, lung and spleen” value [12] was “no obvious changes”. The “Cell uptake and mitochondria localization” value [13] was “clear mitochondria target pattern”.
